In publication PMC7901646, “Pyrrolo[2′,3′:3,4]cyclohepta[1,2-d][1,2]oxazoles, a New Class of Antimitotic Agents Active against Multiple Malignant Cell Types” (Journal of Medicinal Chemistry, 2020):

Legend:
tubulin colchicine site = tubulin colchicine site (Bos taurus, UniProt P81947+Q6B856); assay: Inhibition of [3H]colchicine binding to tubulin; settings: read-out: inhibition of colchicine binding % inhibition ± SD
Description: Reaction mixtures in the assembly assay contained 9 μM (0.9 mg/mL) tubulin in the assembly assay, and in the colchicine assay they contained 0.5 μM tubulin, 5.0 μM [^3H]colchicine, and 5.0 μM inhibitor.
Analysis of effects on tubulin polymerization was performed by turbidimetry at 350 nm in recording spectrophotometers equipped with electronic temperature controllers as described in detail elsewhere.[71] […] The binding of [^3H]colchicine to tubulin was perfomed as described in detail previously[72] except that the tubulin concentration was reduced from 0.1 mg/mL to 0.05 mg/mL and only one, instead of two, DEAE-cellulose filter was used for each reaction mixture.

bovine brain tubulin = bovine brain tubulin (Bos taurus, UniProt P81947+Q6B856); assay: Inhibition of tubulin assembly (turbidimetry); format: biochemical; settings: 9 μM (0.9 mg/mL) tubulin, 20 min at 30 °C; read-out: inhibition of tubulin assembly IC50 ± SD
NCI-H23 = assay: NCI-60 screen; format: cell-based; settings: Homo sapiens, Non-Small-Cell Lung Cancer
Description: (§1) All the synthesized compounds 51–76 were tested at a 10^–5 M concentration for their antitumor activity on the full NCI-60 panel comprising cancer cell lines derived from nine human cancer cell types (leukemia, non-small-cell lung, colon, central nervous system, melanoma, ovarian, renal, prostate, and breast).[50]

T-47D = assay: NCI-60 screen; format: cell-based; settings: Homo sapiens, T47D; Breast Cancer
Description: as §1

NCI-H322M = assay: NCI-60 screen; format: cell-based; settings: Homo sapiens, Non-Small-Cell Lung Cancer
Description: as §1

MALME-3M = assay: NCI-60 screen; format: cell-based; settings: Homo sapiens, Melanoma
Description: as §1

HCT-15 = assay: NCI-60 screen; format: cell-based; settings: Homo sapiens, Colon Cancer
Description: as §1

OVCAR-4 = assay: NCI-60 screen; format: cell-based; settings: Homo sapiens, Ovarian Cancer
Description: as §1

786–0 = assay: NCI-60 screen; format: cell-based; settings: Homo sapiens, Renal Cancer
Description: as §1

SF-539 = assay: NCI-60 screen; format: cell-based; settings: Homo sapiens, CNS Cancer
Description: as §1

OVCAR-8 = assay: NCI-60 screen; format: cell-based; settings: Homo sapiens, Ovarian Cancer
Description: as §1

HCC-2998 = assay: NCI-60 screen; format: cell-based; settings: Homo sapiens, Colon Cancer
Description: as §1

BT-549 = assay: NCI-60 screen; format: cell-based; settings: Homo sapiens, Breast Cancer
Description: as §1

SN12C = assay: NCI-60 screen; format: cell-based; settings: Homo sapiens, Renal Cancer
Description: as §1

SW-620 = assay: NCI-60 screen; format: cell-based; settings: Homo sapiens, Colon Cancer
Description: as §1

IGROV1 = assay: NCI-60 screen; format: cell-based; settings: Homo sapiens, IGROV-1; Ovarian Cancer
Description: as §1

SF-295 = assay: NCI-60 screen; format: cell-based; settings: Homo sapiens, CNS Cancer
Description: as §1

U251 = assay: NCI-60 screen; format: cell-based; settings: Homo sapiens, U-251; CNS Cancer
Description: as §1

SNB-75 = assay: NCI-60 screen; format: cell-based; settings: Homo sapiens, CNS Cancer
Description: as §1

UO-31 = assay: NCI-60 screen; format: cell-based; settings: Homo sapiens, Renal Cancer
Description: as §1

OVCAR-5 = assay: NCI-60 screen; format: cell-based; settings: Homo sapiens, Ovarian Cancer
Description: as §1

TK-10 = assay: NCI-60 screen; format: cell-based; settings: Homo sapiens, Renal Cancer
Description: as §1

SK-OV-3 = assay: NCI-60 screen; format: cell-based; settings: Homo sapiens, Ovarian Cancer
Description: as §1

MDA-MB-468 = assay: NCI-60 screen; format: cell-based; settings: Homo sapiens, Breast Cancer
Description: as §1

HL-60(TB) = assay: NCI-60 screen; format: cell-based; settings: Homo sapiens, Leukemia
Description: as §1

CAKI-1 = assay: NCI-60 screen; format: cell-based; settings: Homo sapiens, Renal Cancer
Description: as §1

HS 578T = assay: NCI-60 screen; format: cell-based; settings: Homo sapiens, Breast Cancer
Description: as §1

HT29 = assay: NCI-60 screen; format: cell-based; settings: Homo sapiens, HT-29; Colon Cancer
Description: as §1

HOP-62 = assay: NCI-60 screen; format: cell-based; settings: Homo sapiens, Non-Small-Cell Lung Cancer
Description: as §1

SK-MEL-28 = assay: NCI-60 screen; format: cell-based; settings: Homo sapiens, Melanoma
Description: as §1

RPMI-8226 = assay: NCI-60 screen; format: cell-based; settings: Homo sapiens, Leukemia
Description: as §1

RXF 393 = assay: NCI-60 screen; format: cell-based; settings: Homo sapiens, Renal Cancer
Description: as §1

HeLa cells = assay: Flow cytometric cell cycle distribution; format: cell-based; settings: 24 h
Description: To evaluate the effects of compounds 63, 66, and 75 on cell cycle progression, we first treated HeLa cells for 24 h.The cells were then labeled with propidium iodide (PI) and analyzed by flow cytometry. As shown in Figure 5 (panel B), compound 66 induced arrest of the cell cycle in the G2/M phase.
5 ×10^5 HeLa cells were treated with different concentrations of the test compounds for 24 h. After the incubation period, the cells were collected, centrifuged, and fixed with ice-cold ethanol (70%). The cells were treated with lysis buffer containing RNase A and 0.1% Triton X-100 and stained with PI. Samples were analyzed on a Cytomic FC500 flow cytometer (Beckman Coulter). DNA histograms were analyzed using MultiCycle for Windows (Phoenix Flow Systems).

HOP-92 = assay: NCI-60 screen; format: cell-based; settings: Homo sapiens, Non-Small-Cell Lung Cancer
Description: as §1

SK-MEL-2 = assay: NCI-60 screen; format: cell-based; settings: Homo sapiens, Melanoma
Description: as §1

[1] = test system: human peripheral blood lymphocytes stimulated with PHA; assay: Cytotoxicity in PHA-stimulated PBLs (MTT); format: cell-based; settings: Lymphocyte, 72 h, mean ± SEM, three experiments, read-out: GI50 PBLPHA
Description: (§2) PBLs were obtained from human peripheral blood (leucocyte rich plasma-buffy coats) from healthy volunteers using the Lymphoprep (Fresenius KABI Norge AS) gradient density centrifugation.
(§3) After extensive washing, cells were resuspended (1.0 × 10^6 cells/mL) in RPMI-1640 with 10% fetal bovine serum and incubated overnight. For cytotoxicity evaluations in proliferating PBL cultures, nonadherent cells were resuspended at 5 × 10^5 cells/mL in growth medium, containing 2.5 μg/mL PHA (Irvine Scientific). Different concentrations of the test compounds were added, and viability was determined 72 h later by the MTT test. For cytotoxicity evaluations in resting PBL cultures, nonadherent cells were resuspended (5 × 10^5 cells/mL) and treated for 72 h with the test compounds.

[2] = test system: human peripheral blood lymphocytes not stimulated with PHA; assay: Cytotoxicity in resting PBLs (MTT); format: cell-based; settings: Lymphocyte, 72 h, mean ± SEM, three experiments, read-out: GI50 PBLresting
Description: as §2, §3

tubulin colchicine site, sequence (Q6B856 whole entry): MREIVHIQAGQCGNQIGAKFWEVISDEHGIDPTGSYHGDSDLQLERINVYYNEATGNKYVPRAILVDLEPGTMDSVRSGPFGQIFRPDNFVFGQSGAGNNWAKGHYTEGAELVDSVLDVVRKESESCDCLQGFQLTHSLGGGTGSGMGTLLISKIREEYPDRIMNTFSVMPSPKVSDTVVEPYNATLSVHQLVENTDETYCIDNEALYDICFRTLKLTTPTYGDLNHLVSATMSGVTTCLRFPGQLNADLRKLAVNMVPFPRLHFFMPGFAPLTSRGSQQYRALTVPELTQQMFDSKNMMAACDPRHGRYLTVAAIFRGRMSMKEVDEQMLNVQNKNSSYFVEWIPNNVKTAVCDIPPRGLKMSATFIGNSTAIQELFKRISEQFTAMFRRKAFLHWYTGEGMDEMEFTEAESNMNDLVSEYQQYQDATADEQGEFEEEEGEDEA
tubulin colchicine site, sequence (P81947 whole entry): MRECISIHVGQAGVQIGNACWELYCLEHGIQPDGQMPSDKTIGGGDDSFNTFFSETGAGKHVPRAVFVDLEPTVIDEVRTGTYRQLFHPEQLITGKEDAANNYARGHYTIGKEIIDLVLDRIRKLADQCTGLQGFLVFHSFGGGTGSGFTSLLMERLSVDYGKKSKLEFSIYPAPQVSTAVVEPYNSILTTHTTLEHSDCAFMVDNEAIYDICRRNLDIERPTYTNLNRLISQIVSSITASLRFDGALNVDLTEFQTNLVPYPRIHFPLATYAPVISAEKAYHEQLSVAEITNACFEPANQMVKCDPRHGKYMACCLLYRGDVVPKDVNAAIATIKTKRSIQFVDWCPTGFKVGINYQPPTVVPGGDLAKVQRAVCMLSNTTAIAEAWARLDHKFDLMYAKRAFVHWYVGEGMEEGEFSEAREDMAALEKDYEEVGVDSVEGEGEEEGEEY
bovine brain tubulin, sequence (Q6B856 whole entry): as the sequence (Q6B856 whole entry) above
bovine brain tubulin, sequence (P81947 whole entry): as the sequence (P81947 whole entry) above

SMILES	inhibition at 5 µM (tubulin colchicine site)	IC50 (bovine brain tubulin)	GI50 (NCI-H23)	GI50 (T-47D)	GI50 (NCI-H322M)	GI50 (MALME-3M)	GI50 (HCT-15)	GI50 (OVCAR-4)	GI50 (786–0)	GI50 (SF-539)	GI50 (SW-620)	GI50 (IGROV1)	GI50 (SF-295)	GI50 (TK-10)	GI50 (SK-OV-3)	GI50 (HL-60(TB))	GI50 (CAKI-1)	GI50 (HT29)	GI50 (HOP-62)	GI50 (RPMI-8226)	also measured
CCOC(=O)c1cc2c(n1Cc1cc(OC)c(OC)c(OC)c1)-c1oncc1CCC2 [Compound 67, Ethyl 9-(3,4,5-Trimethoxybenzyl)-4,5,6,9-tetrahydropyrrolo[2′,3′:3,4]cyclohepta[1,2-d][1,2]oxazole-8-carboxylate]	25 ± 0.01%	4600 ± 800 nM	370 nM	100 nM	320 nM	50 nM	160 nM	720 nM	970 nM	120 nM	140 nM	60 nM	440 nM	64900 nM	130 nM	190 nM	70 nM	70 nM	170 nM	380 nM	GI50 (OVCAR-8): 240 nM; GI50 (HCC-2998): 300 nM; GI50 (BT-549): 290 nM; GI50 (SN12C): 760 nM; GI50 (U251): 140 nM; GI50 (SNB-75): 70 nM; GI50 (UO-31): 80 nM; GI50 (OVCAR-5): 530 nM; GI50 (MDA-MB-468): 740 nM; GI50 (HS 578T): 340 nM; GI50 (SK-MEL-28): 300 nM; GI50 (RXF 393): 120 nM
CCOC(=O)c1c(Cl)c2c(n1Cc1ccccc1)-c1oncc1CCC2 [Compound 70, Ethyl 7-Chloro-9-benzyl-4,5,6,9-tetrahydropyrrolo[2′,3′:3,4]cyclohepta[1,2-d][1,2]oxazole-8-carboxylate]	–	–	–	2690 nM	> 100000 nM	3680 nM	3390 nM	–	–	–	3810 nM	4390 nM	> 100000 nM	> 100000 nM	> 100000 nM	3320 nM	3510 nM	2950 nM	4350 nM	3270 nM	GI50 (OVCAR-5): > 100000 nM
CCOC(=O)c1c(Cl)c2c(n1Cc1cc(OC)cc(OC)c1)-c1oncc1CCC2 [Compound 75, Ethyl 7-Chloro-9-(3,5-dimethoxybenzyl)-4,5,6,9-tetrahydropyrrolo[2′,3′:3,4]cyclohepta[1,2-d][1,2]oxazole-8-carboxylate]	42 ± 5%	1900 ± 100 nM	680 nM	440 nM	510 nM	200 nM	370 nM	850 nM	4240 nM	240 nM	320 nM	340 nM	60 nM	10300 nM	240 nM	310 nM	280 nM	270 nM	290 nM	390 nM	concentration at which G2/M arrest first occurred (HeLa cells): 0.25 µM; GI50 (OVCAR-8): 410 nM; GI50 (BT-549): 27000 nM; GI50 (SN12C): 830 nM; GI50 (U251): 310 nM; GI50 (SNB-75): 220 nM; GI50 (UO-31): 780 nM; GI50 (HOP-92): 460 nM; GI50 (MDA-MB-468): 730 nM; GI50 (SK-MEL-2): 220 nM; GI50 (HS 578T): 450 nM; GI50 (SK-MEL-28): 660 nM; GI50 (RXF 393): 250 nM; GI50 [1]: > 100000 nM; GI50 [2]: > 100000 nM
